Experimental data from patent publication US8722714B2, “Oxazolidine derivatives as NMDA antagonists” (The Honk Kong University of Science and Technology, priority 2008, dated 2014).

Legend:
Test in all cases: Ligand binding assay (High-throughput Profile, CEREP)
opioid kappa receptor = opioid kappa receptor (Rattus norvegicus, UniProt P34975)
Method: (§1) To determine the pharmacological profile and potential targets of LC-02, 80 binding assays were performed (High-throughput Profile, CEREP, France). LC-02 was evaluated at a single concentration in these specific binding assays. […] A cutoff of 25% is considered as a moderate effect.
(§2) Compound LC-02 (10 μM) was subjected to ligand binding assays with human A3 and rat kappa receptor overexpressing cells. Results are expressed as a percent of control specific agonist response [100-(measured specific response/control specific agonist response)×100] obtained in the presence of LC-02.

Opioid (mu) = biological target: T1, Opioid (mu) (Homo sapiens, UniProt P35372)
T1 construct: CEREP, France (contract assay, High-throughput Profile)
Method: as §1, §2

adenosine A3 receptor = biological target: T2, adenosine A3 receptor (Homo sapiens, UniProt P0DMS8); conditions: [125I]AB-MECA, human A3 overexpressing cells
T2 sequence (P0DMS8 1-318): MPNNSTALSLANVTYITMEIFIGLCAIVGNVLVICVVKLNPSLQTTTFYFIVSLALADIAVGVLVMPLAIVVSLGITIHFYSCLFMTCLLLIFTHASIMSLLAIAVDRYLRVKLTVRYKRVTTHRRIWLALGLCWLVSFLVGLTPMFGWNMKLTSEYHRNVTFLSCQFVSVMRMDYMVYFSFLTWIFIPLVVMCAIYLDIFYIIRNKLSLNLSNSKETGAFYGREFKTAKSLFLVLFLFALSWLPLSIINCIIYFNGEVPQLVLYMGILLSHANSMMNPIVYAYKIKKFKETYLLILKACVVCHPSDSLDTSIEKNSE
Method: as §1, §2

Chain of opioid kappa receptor (P34975 whole entry): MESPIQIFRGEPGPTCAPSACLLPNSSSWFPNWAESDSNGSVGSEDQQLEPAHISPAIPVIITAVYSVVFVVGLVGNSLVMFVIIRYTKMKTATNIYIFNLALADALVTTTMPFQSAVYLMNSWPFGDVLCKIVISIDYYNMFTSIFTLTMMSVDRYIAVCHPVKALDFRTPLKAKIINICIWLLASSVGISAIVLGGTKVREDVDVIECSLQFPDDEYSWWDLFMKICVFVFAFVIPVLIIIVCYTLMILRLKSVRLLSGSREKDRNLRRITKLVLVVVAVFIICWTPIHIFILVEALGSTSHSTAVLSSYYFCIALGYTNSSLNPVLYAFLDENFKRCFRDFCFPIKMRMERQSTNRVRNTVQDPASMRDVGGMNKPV
T1 sequence (P35372 whole entry): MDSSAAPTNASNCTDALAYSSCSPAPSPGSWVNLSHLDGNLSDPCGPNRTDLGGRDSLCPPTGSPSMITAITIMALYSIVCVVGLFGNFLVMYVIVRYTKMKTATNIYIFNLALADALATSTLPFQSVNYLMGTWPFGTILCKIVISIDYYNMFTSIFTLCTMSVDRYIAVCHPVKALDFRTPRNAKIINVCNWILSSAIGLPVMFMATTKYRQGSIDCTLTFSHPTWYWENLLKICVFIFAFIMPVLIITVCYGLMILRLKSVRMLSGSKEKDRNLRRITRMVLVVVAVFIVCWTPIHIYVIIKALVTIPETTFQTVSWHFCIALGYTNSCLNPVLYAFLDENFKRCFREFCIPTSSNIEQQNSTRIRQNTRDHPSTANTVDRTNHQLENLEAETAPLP

CC[C@H]1N[C@@H](CC(C)C)C(CC)(CC)O1 [LC-02]
% of inhibition of ligand binding (opioid kappa receptor; 10 μM, [3H]U 69593, rat kappa receptor overexpressing cells): 26% | inhibition at 10 µM (opioid kappa receptor; [3H]U 69593, rat kappa receptor overexpressing cells): 30% | inhibition at 10 µM (Opioid (mu)): 14% | inhibition at 10 µM (adenosine A3 receptor): 30%
